Earlier results as cited in article PMC2363746, “Phase I dose-escalation and pharmacokinetic study of a novel folate analogue AG2034” (British Journal of Cancer, 2001).

What does the source list for `Nc1nc2c(c(=O)[nH]1)C[C@@H](CCc1ccc(C(=O)N[C@@H](CCC(=O)O)C(=O)O)cc1)CN2` [lometrexol, (6R)-5,10-dideazatetrahydrofolate]?
Unexpected toxicity in phase I studies (in vivo): myelosuppression and mucositis; Antitumour activity in phase I studies (ref Ray et al, 1993): objective antitumour activity
